pIC50: −log10 of the molar value.
System: 379773-124-R-J2-PDC spheroid viability
Assay: Anticancer human tumor 379773-124-R-J2-PDC patient-derived endometrial carcinoma cell line growth inhibition [POLQ]
Settings: spheroids with HUVEC and MSC; for pIC50: curve of first compound; for viability, T/C: stronger effect = lower value
Summary of the method: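 Growth inhibition in 3D: complex spheroids (tumor PDC, HUVEC, MSC) treated with POLQ inhibitor combinations; where Cmax unknown, highest tested concentration 10 microM, except SN-38 at 1 microM.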

[1] = second compound 0.0316 µM, first compound 0.0316 µM
[2] = second compound 0.0316 µM, first compound 0.1 µM
[3] = second compound 0.0316 µM, first compound 0.316 µM
[4] = second compound 0.0316 µM, first compound 1 µM
[5] = second compound 0.0316 µM, first compound 3.16 µM
[6] = second compound 0.0316 µM, first compound 10 µM
[7] = second compound 0.1 µM, first compound 0.0316 µM
[8] = second compound 0.1 µM, first compound 0.1 µM
[9] = second compound 0.1 µM, first compound 0.316 µM
[10] = second compound 0.1 µM, first compound 1 µM
[11] = second compound 0.1 µM, first compound 3.16 µM
[12] = second compound 0.1 µM, first compound 10 µM
[13] = second compound 0.316 µM, first compound 0.0316 µM
[14] = second compound 0.316 µM, first compound 0.1 µM
[15] = second compound 0.316 µM, first compound 0.316 µM
[16] = second compound 0.316 µM, first compound 1 µM
[17] = second compound 0.316 µM, first compound 3.16 µM
[18] = second compound 0.316 µM, first compound 10 µM
[19] = second compound 1 µM, first compound 0.0316 µM
[20] = second compound 1 µM, first compound 0.1 µM
[21] = second compound 1 µM, first compound 0.316 µM
[22] = second compound 1 µM, first compound 1 µM
[23] = second compound 1 µM, first compound 3.16 µM
[24] = second compound 1 µM, first compound 10 µM
[25] = second compound 3.16 µM, first compound 0.0316 µM
[26] = second compound 3.16 µM, first compound 0.1 µM
[27] = second compound 3.16 µM, first compound 0.316 µM
[28] = second compound 3.16 µM, first compound 1 µM
[29] = second compound 3.16 µM, first compound 3.16 µM
[30] = second compound 3.16 µM, first compound 10 µM
[31] = second compound 10 µM, first compound 0.0316 µM
[32] = second compound 10 µM, first compound 0.1 µM
[33] = second compound 10 µM, first compound 0.316 µM
[34] = second compound 10 µM, first compound 1 µM
[35] = second compound 10 µM, first compound 3.16 µM
[36] = second compound 10 µM, first compound 10 µM
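Further: spheroids exposed to drugs for seven days before readout.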
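Wherever viability, T/C is given: percent viability relative to DMSO vehicle control taken as 100%.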

SMILES: COc1cccc2c1C(=O)c1c(O)c3c(c(O)c1C2=O)CC(O)(C(=O)CO)CC3OC1CC(N)C(O)C(C)O1 (stereo unspecified) + Cc1cccc(N(C)C(=O)C2C(O)CCN2c2nc(C)cc(C(F)(F)F)c2C#N)c1
- pIC50 (second compound 0.0316 µM): 7.23
- pIC50 (second compound 0.1 µM): 7.20
- pIC50 (second compound 0.316 µM): 7.28
- pIC50 (second compound 1 µM): 7.27
- pIC50 (second compound 3.16 µM): 7.32
- pIC50 (second compound 10 µM): > 7.50
- viability, T/C [1]: 80.6%
- viability, T/C [2]: 22%
- viability, T/C [3]: 9.56%
- viability, T/C [4]: 6.15%
- viability, T/C [5]: 0.89%
- viability, T/C [6]: 0.14%
- viability, T/C [7]: 82.8%
- viability, T/C [8]: 28.3%
- viability, T/C [9]: 9.45%
- viability, T/C [10]: 5.6%
- viability, T/C [11]: 1.37%
- viability, T/C [12]: 0.84%
- viability, T/C [13]: 70.5%
- viability, T/C [14]: 23.1%
- viability, T/C [15]: 7.91%
- viability, T/C [16]: 6.47%
- viability, T/C [17]: 2%
- viability, T/C [18]: 1.9%
- viability, T/C [19]: 74.8%
- viability, T/C [20]: 20.8%
- viability, T/C [21]: 9.58%
- viability, T/C [22]: 5.67%
- viability, T/C [23]: 0.65%
- viability, T/C [24]: 1.38%
- viability, T/C [25]: 69.5%
- viability, T/C [26]: 15.7%
- viability, T/C [27]: 7.22%
- viability, T/C [28]: 7.14%
- viability, T/C [29]: 1.2%
- viability, T/C [30]: 0.28%
- viability, T/C [31]: 48.5%
- viability, T/C [32]: 12%
- viability, T/C [33]: 9.32%
- viability, T/C [34]: 4.59%
- viability, T/C [35]: 0.51%
- viability, T/C [36]: 0.38%

SMILES: CC1COCCN1c1cc(-c2ccnn2C)c2ccnc(-c3ccn[nH]3)c2n1 (stereo unspecified) + Nc1ccc(C#CCN(C(=O)Cc2ncc(C(F)(F)F)cc2C(F)(F)F)c2ccc(F)cc2)nn1
- pIC50 (second compound 0.0316 µM): 6.92
- pIC50 (second compound 0.1 µM): 6.88
- pIC50 (second compound 0.316 µM): 6.94
- pIC50 (second compound 1 µM): 6.89
- pIC50 (second compound 3.16 µM): 6.87
- pIC50 (second compound 10 µM): 6.85
- viability, T/C [1]: 89.5%
- viability, T/C [2]: 56.8%
- viability, T/C [3]: 13.7%
- viability, T/C [4]: 11.4%
- viability, T/C [5]: 12%
- viability, T/C [6]: 6.24%
- viability, T/C [7]: 89.5%
- viability, T/C [8]: 61.2%
- viability, T/C [9]: 15.6%
- viability, T/C [10]: 11.1%
- viability, T/C [11]: 12.2%
- viability, T/C [12]: 8.99%
- viability, T/C [13]: 90.6%
- viability, T/C [14]: 54.3%
- viability, T/C [15]: 16.2%
- viability, T/C [16]: 11.5%
- viability, T/C [17]: 12.7%
- viability, T/C [18]: 7.88%
- viability, T/C [19]: 93.2%
- viability, T/C [20]: 60.6%
- viability, T/C [21]: 13.9%
- viability, T/C [22]: 9.22%
- viability, T/C [23]: 12.6%
- viability, T/C [24]: 9.58%
- viability, T/C [25]: 91.4%
- viability, T/C [26]: 62.9%
- viability, T/C [27]: 13%
- viability, T/C [28]: 10.6%
- viability, T/C [29]: 10.9%
- viability, T/C [30]: 7.43%
- viability, T/C [31]: 80.1%
- viability, T/C [32]: 64.2%
- viability, T/C [33]: 17.7%
- viability, T/C [34]: 8.24%
- viability, T/C [35]: 12.3%
- viability, T/C [36]: 8.65%

SMILES: COc1cc(C2c3cc4c(cc3C(OC3OC5COC(C)OC5C(O)C3O)C3COC(=O)C23)OCO4)cc(OC)c1O (stereo unspecified) + Cc1cccc(N(C)C(=O)C2C(O)CCN2c2nc(C)cc(C(F)(F)F)c2C#N)c1
- pIC50 (second compound 0.0316 µM): 5.92
- pIC50 (second compound 0.1 µM): 5.91
- pIC50 (second compound 0.316 µM): 6.04
- pIC50 (second compound 1 µM): 5.92
- pIC50 (second compound 3.16 µM): 5.98
- pIC50 (second compound 10 µM): 6.24
- viability, T/C [1]: 91.2%
- viability, T/C [2]: 71.9%
- viability, T/C [3]: 82.6%
- viability, T/C [4]: 56.5%
- viability, T/C [5]: 12.7%
- viability, T/C [6]: 8.66%
- viability, T/C [7]: 82.8%
- viability, T/C [8]: 83.6%
- viability, T/C [9]: 83.8%
- viability, T/C [10]: 58%
- viability, T/C [11]: 12.7%
- viability, T/C [12]: 9.6%
- viability, T/C [13]: 86%
- viability, T/C [14]: 82%
- viability, T/C [15]: 68.4%
- viability, T/C [16]: 52.9%
- viability, T/C [17]: 12%
- viability, T/C [18]: 9.6%
- viability, T/C [19]: 74.4%
- viability, T/C [20]: 84.9%
- viability, T/C [21]: 71.1%
- viability, T/C [22]: 57.1%
- viability, T/C [23]: 9.91%
- viability, T/C [24]: 11.1%
- viability, T/C [25]: 73.3%
- viability, T/C [26]: 80.9%
- viability, T/C [27]: 77.9%
- viability, T/C [28]: 51.4%
- viability, T/C [29]: 11%
- viability, T/C [30]: 13.6%
- viability, T/C [31]: 77.6%
- viability, T/C [32]: 75%
- viability, T/C [33]: 66.1%
- viability, T/C [34]: 35.5%
- viability, T/C [35]: 11.9%
- viability, T/C [36]: 11.2%

— PubChem BioAssay AID1963848 (Molecular Pharmacology Branch, DTP, NCI, 2024)
